Assay results: patent US5561127A, “Muscarinic receptor ligands” (Allelix Biopharmaceuticals, Inc., priority 1994, dated 1996)

Experiments:
5-HT2 receptor = 5-HT2 receptor (Rattus norvegicus, UniProt P14842); assay: 5-HT2 receptor binding assay (displacement of 3H-ketanserin)
[1] = molecular target: T1, human D2 receptor (short isoform) (Homo sapiens, UniProt P14416); assay: Dopamine D2 receptor binding assay (displacement of 3H-spiperone); settings: 3H-spiperone 0.25 nM, GH4C1 cells transfected with human D2 short isoform, room temperature, 90 min; read-out: Receptor affinity D2 (Ki)
T1 construct: expressed in transfected cells
T1 sequence (P14416 1-414 isoform P14416-2): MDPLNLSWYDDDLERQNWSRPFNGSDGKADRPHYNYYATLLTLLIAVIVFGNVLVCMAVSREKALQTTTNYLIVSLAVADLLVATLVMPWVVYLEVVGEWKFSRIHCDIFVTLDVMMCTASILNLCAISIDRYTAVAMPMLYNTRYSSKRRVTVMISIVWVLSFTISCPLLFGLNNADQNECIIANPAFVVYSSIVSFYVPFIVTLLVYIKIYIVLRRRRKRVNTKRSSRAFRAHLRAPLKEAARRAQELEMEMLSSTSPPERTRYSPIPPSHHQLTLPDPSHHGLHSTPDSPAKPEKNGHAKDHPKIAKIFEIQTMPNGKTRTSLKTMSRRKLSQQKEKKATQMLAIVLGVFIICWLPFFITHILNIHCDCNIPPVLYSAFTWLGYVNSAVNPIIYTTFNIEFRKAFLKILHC
Procedure: GH4 C1 (rat pituitary) cells stably transfected with the human D2 receptor (short isoform) were grown in CO2 independent media in roller bottles (1500 cm^2) for 10 days. 100 μM ZnSO4 was added to the cells (the D2 promoter being zinc inducible). After 16 hours, fresh media was added to allow the cells to recover for 24 hours. The cells were harvested using versene and then centrifuged in a Sorval centrifuge for 10 minutes, at 5000 rpm (GS3 rotor). Pellets were quickly frozen in liquid nitrogen and stored at -80° C. until used in the binding assays. When used in the assay, cells were thawed on ice for 20 minutes. Each roller bottle produced approximately 72 mg of protein.
This assay employed the same procedures as the non-specific binding assay for D4 with the exception that 2 μM (final conc.) of (-) sulpiride (Research Chemicals Inc.) was used in place of dopamine.

[2] = molecular target: muscarinic M1/M2 receptor; assay: Muscarinic M1/M2 receptor binding assay (displacement of 3H-QNB); settings: 3H-QNB 0.126 nM, rat frontal cortex membranes, 32° C., 60 min, pH 7.4; read-out: Receptor affinity M1/M2 (Ki)
[3] = molecular target: T2, human D4 receptor (D4.2 sub-type) (Homo sapiens, UniProt P21917, DEL265-296); assay: Dopamine D4 receptor binding assay (displacement of 3H-spiperone); settings: 3H-spiperone 0.25 nM, transfected with human D4.2, room temperature, 90 min; read-out: Receptor affinity D4 (Ki)
T2 construct: expressed in transfected cells; host or cells: HEK 298 (so in the source)
T2 sequence (P21917 with tags, fused parts or gaps DEL265-296): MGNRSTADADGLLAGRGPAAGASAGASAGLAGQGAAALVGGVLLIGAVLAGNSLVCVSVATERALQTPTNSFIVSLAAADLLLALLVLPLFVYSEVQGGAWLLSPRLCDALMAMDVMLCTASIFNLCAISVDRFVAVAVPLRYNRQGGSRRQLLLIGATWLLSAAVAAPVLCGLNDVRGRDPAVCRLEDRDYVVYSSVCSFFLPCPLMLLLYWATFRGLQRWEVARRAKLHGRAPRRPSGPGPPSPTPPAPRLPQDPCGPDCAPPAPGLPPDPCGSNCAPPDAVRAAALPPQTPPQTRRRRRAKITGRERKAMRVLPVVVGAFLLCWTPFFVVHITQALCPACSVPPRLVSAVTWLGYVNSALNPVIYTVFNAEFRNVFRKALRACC
Procedure: Dopamine Receptor Binding Assay
The cells were then centrifuged in a Sorval centrifuge for 10 minutes, 5000 rpm (GS3 rotor) and the pellets quickly frozen in liquid nitrogen and stored at -80° C. until used in binding assay. When used in the assay, cells were thawed on ice for 20 minutes and then 10 mL of incubation buffer (50 mM Tris, 1 mM EDTA, 4 mM MgCl2, 5 mM KCl, 1.5 mM CaCl2, 120 mM NaCl, pH7.4) was added. […] Concentration of receptor protein was determined using the Pierce BCA assay.

Sequence of 5-HT2 receptor (P14842 whole entry, canonical isoform): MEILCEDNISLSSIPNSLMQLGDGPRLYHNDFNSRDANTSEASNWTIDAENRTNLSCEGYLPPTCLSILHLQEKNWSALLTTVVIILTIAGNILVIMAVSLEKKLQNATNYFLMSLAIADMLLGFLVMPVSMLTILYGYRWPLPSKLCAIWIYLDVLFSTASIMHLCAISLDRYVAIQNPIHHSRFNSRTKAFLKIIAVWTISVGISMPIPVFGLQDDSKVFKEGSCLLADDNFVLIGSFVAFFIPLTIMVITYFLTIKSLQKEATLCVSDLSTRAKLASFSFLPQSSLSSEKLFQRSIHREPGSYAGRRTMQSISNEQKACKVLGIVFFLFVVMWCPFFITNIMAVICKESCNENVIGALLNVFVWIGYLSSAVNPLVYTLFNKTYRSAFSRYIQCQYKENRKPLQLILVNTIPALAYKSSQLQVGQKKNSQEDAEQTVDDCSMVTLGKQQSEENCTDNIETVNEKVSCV

SMILES | Ki (5-HT2 receptor) [nM] | Ki [1] [nM] | Ki [2] [nM] | Ki [3] [nM]
CN1CC2CC1CN2C1=Nc2cc(Cl)c(Cl)cc2Nc2ccccc21 (stereo not drawn) [7,8-dichloro-11-(2-methyl-2,5-diazabicyclo(2.2.1)hept-5-yl)-dibenzo[b,e][1,4]diazepine] | 1600 | 4710 | 41 | 4770
CN1CC2CC1CN2C1=Nc2cc(Cl)ccc2Oc2ccccc21 (stereo not drawn) [8-chloro-11-(2-methyl-2,5-diazabicyclo(2.2.1)hept-5-yl)-dibenz[b,f][1,4]oxazepine] | 1020 | 4520 | 28 | 4770
c1ccc(CN2CC3CC2CN3C2=Nc3ccccc3Oc3ccccc32)cc1 (stereo not drawn) [11-(2-benzyl-2,5-diazabicyclo(2.2.1)hept-5-yl)-dibenz[b,f][1,4]oxazepine] | 3670 | 1330 | 882 | 632
